In US20100144773A1 (priority 2007, published 2010):
Where two headings read alike, the source gives them in different places.

Test system: male Wistar rats injected with beta-amyloid peptide 25-35 into NBM
Settings: 1 mg/kg once a day for 7 days from day 16 after amyloid injection, retention trial 24 h after acquisition, cut-off 180 s, n=8, control 48 ± 11
Description: Beta-amyloid was administered bilaterally into NBM of male Wistar rats in dose of 2 μg per each side. […] Control rats received saline intranasally. On day next to the last day of the treatment, passive avoidance performance in rats was tested for two consecutive days. A two-compartment, step-through, passive avoidance apparatus consisting of illuminated (25×40×25 cm) and dark (25×40×25 cm) compartments attached to an electrified grid floor and separated by a guillotine door (8×8 cm) was used. In the acquisition trial, the rat was placed in the illuminated compartment in a position its tail directed to the closed door for 2 min to habituate to the apparatus. The guillotine door was opened and time to enter to dark compartment was recorded. When the rat entered to dark compartment completely (four foots in dark compartment), the guillotine door was closed and the rat was delivered an electrical shock of 0.8 mA for 3 sec through the grid floor. After the shock, the rat was immediately placed in home cage. In the retention trial, conducted 24 h after the acquisition trial, the rat was placed in the illuminated compartment and the retention latency to enter into the dark compartment was recorded until 180 s had elapsed. […] Data are presented as retention latency mean±SD (n=8).

| Compound | Latency (retention latency to enter the dark compartment, mean±SD) (intranasally) [s] | Latency (retention latency to enter the dark compartment, mean±SD) (intraperitoneally) [s] |
| --- | --- | --- |
| C[N+](C)(C)CCO.O=C([O-])CCC(=O)O [Compound of formula (I)] | 103 ± 18 | 55 ± 18 |
| C[N+](C)(C)CCO.O=C([O-])CCC(=O)[O-].[K+] [Compound of formula (IV)] | 65 ± 16 | 49 ± 17 |
| C[N+](C)(C)CCO.O=C([O-])CCC(=O)[O-].[Na+] [Compound of formula (III)] | 87 ± 19 | 53 ± 28 |
